# Where two headings read alike, the source gives them in different places.
# How the values were obtained:
# [1] = Body weight and tolerance in the Mia PaCa-2 tumor model; type: in vivo; details: each dose group (10 and 30 mg/kg PO QD × 22)
# Procedure: Assay on pharmacodynamics in vivo in a subcutaneously transplanted tumor model of human pancreatic cancer Mia PaCa-2 cells in Balb/c Nude mice
# Cell inoculation: 0.2 mL (5×10^6 cells/mouse) of Mia PaCa-2 cells (plus Matrigel, 1:1 by volume) were subcutaneously inoculated into the right back of each mouse. When the average tumor volume reached 190 mm^3, mice were randomized into groups based on tumor volume and administration was initiated according to the protocol in Table 15.
# [2] = In vitro stability in liver microsomes, CD-1 mice; type: in vitro ADME; details: mouse, CD-1 mice liver microsomes, 0.5 mg/mL
# Procedure: Metabolic stabilities of the assay compound in liver microsomes of CD-1 mice, SD rats, beagle dogs, cynomolgus monkeys, and human were assayed, respectively.
# Two 96-well incubation plates were prepared and named T60 incubation plate and NCF60 incubation plate, respectively. 445 μL of microsomal working solutions (liver microsomal protein concentration of 0.56 mg/mL) were added to the T60 incubation plate and the NCF60 incubation plate, respectively, and then the above incubation plates were pre-incubated in a 37° C. water bath for about 10 minutes.
# After the pre-incubation, 5 μL of working solutions of the assay sample or the control compound were added to the T60 incubation plate and the NCF60 incubation plate, respectively, and the mixture was mixed well. 50 μL of potassium phosphate buffer was added to each well of the NCF60 incubation plate to initiate the reaction. 180 μL of stop solution (200 ng/mL tolbutamide and 200 ng/mL labetalol in acetonitrile) and 6 uL of NADPH regeneration system working solution were added to the T0 stop plate, and 54 μL of sample was transferred from T60 incubation plate to T0 stop plate (generation of T0 sample). The reaction was initiated by adding 44 μL of NADPH regeneration system working solution to each well of the T60 incubation plate. Only 54 μL of microsome working solution, 6 uL of NADPH regeneration system working solution and 180 μL of stop solution were added to the Blank plate. Therefore, in samples of the assay compound or the control compound, the final reaction concentration of compound, testosterone, diclofenac and propafenone was 1 μM, the concentration of liver microsomes was 0.5 mg/mL, and the final reaction concentrations of DMSO and acetonitrile in the reaction system were 0.01% (v/v) and 0.99% (v/v), respectively. […] All samples were injected and analyzed by liquid chromatography-tandem mass spectrometry.
# [3] = Pharmacokinetics by oral administration and intravenous injection in SD rats; type: in vivo; details: for Area under the plasma concentration-time curve, AUCu: AUC0-last × PPB(Unbound %); for Vd: SD, iv, 2 mg/kg; for AUC(0-t): read-out: Area under the plasma concentration-time curve, AUC0-last
# Procedure: • 1) Assay on the pharmacokinetics of the assay compound by oral administration and intravenous injection in SD rats
# The assay compound was mixed with 5% o dimethyl sulfoxide/95% o (10% hydroxypropyl-β-cyclodextrin) solution. The mixture was vortexed and sonicated to prepare a 1 mg/mL clear solution, which was filtered through a microporous membrane for later use. Male SD rats aged 7 to 10 weeks were selected, and administered candidate compound solutions intravenously or orally. Whole blood was collected for a certain period of time, and prepared to obtain plasma. Drug concentration was analyzed by LC-MS/MS method, and pharmacokinetic parameters were calculated by Phoenix WinNonlin software (Pharsight, USA).
# [4] = Metabolic stability in hepatocytes, beagle dogs; type: in vitro ADME; details: dog, cryopreserved hepatocytes
# Procedure: (§1) Metabolic stabilities of assay compound in hepatocytes of CD-1 mice, SD rats, beagle dogs, cynomolgus monkeys, and human were assayed, respectively.
# (§2) Several 96-well sample precipitation plates were prepared and named T0, T15, T30, T60, T90, T120, T0-MC, T120-MC and blank substrates, respectively. The recovery medium and incubation medium were taken out in advance and placed in a 37° C. water bath for pre-heating. Cryopreserved hepatocytes were removed from the liquid nitrogen tank and immediately immersed in a 37° C. water bath (approximately 90 seconds). After the cryopreserved hepatocytes had thawed and loosened, they were poured into a centrifuge tube containing 40 mL of recovery medium, and the tube was gently inverted to allow the cells to be resuspended in the recovery medium. The cells were centrifuged at 100×g at room temperature for 5 min, and the supernatant was removed. The hepatocytes were resuspended in an appropriate volume of incubation medium, and the cell viability was calculated by Trypan Blue staining method. 198 μL of hepatocyte suspension (0.51×10^6 cells/mL) was added to the preheated incubation plate. For the culture medium control group, 198 μL of hepatocyte-free incubation medium was added to T0-MC and T120-MC incubation plate. All incubation plates were pre-incubated in a 37° C. incubator for 10 minutes. Then 2 μL of working solutions of the assay sample and the control compound were added, respectively, and the mixture was mixed well. The incubation plate was immediately put into the shaker in the incubator, and the reaction was initiated while starting the timer. For each time point of each compound, 2 duplicate samples were prepared. The incubation conditions were 37° C., saturated humidity, and 5% CO2. […] All samples were mixed well and analyzed by LC/MS/MS.
# [5] = Metabolic stability in hepatocytes, human; type: in vitro ADME; details: cryopreserved hepatocytes
# Procedure: as §1, §2
smiles,measurement,setting,value
C=C(F)C(=O)N1CCN(c2nc(OC[C@@]34CCCN3C[C@H](F)C4)nc3c2CO[C@H](c2c(F)c(N)cc(C)c2C(F)(F)F)C3)C[C@@H]1CC#N [Compound of formula (I)],body weight of mice,[1],stable
same,tolerance,[1],no obvious intolerance
same,CLint scaled at 1 μM,[2],1130 mL/min/kg
same,half-life at 1 μM,[2],4.9 min
same,microsomal CLint at 1 μM,[2]; read-out: CLint(hep),285 µL/min/mg
same,"Area under the plasma concentration-time curve, AUCu","[3]; intravenous injection, 2.0 mg/kg",0.0313 µM·h
same,Vd,"[3]; male, rat, plasma, intravenous injection, 2.0 mg/kg, Vdss/PPB(Unbound %), read-out: Apparent volume of distribution, Vdss, u",221 L/kg
same,Vd,"[3]; male, rat, plasma, intravenous injection, 2.0 mg/kg, read-out: Apparent volume of distribution, Vdss",10.6 L/kg
same,AUC(0-t),"[3]; male, rat, plasma, intravenous injection, 2.0 mg/kg",0.653 µM·h
same,clearance,"[3]; male, rat, plasma, intravenous injection, 2.0 mg/kg, read-out: Clearance rate, CL",71.5 mL/min/kg
same,half-life,"[3]; male, rat, plasma, intravenous injection, 2.0 mg/kg, read-out: Half-life time, T1/2 (converted)",1.9 h
same,AUC(0-t),"[3]; male, rat, plasma, oral administration, 9.8 mg/kg",0.995 µM·h
same,bioavailability,"[3]; male, rat, plasma, oral administration, 9.8 mg/kg, read-out: Bioavailability F (%)",30.5%
same,Cmax,"[3]; male, rat, plasma, oral administration, 9.8 mg/kg, read-out: Peak concentration, Cmax",220 nM
same,Tmax,"[3]; male, rat, plasma, oral administration, 9.8 mg/kg, read-out: Time-to-peak, Tmax",1.5 h
same,"Area under the plasma concentration-time curve, AUCu","[3]; oral administration, 9.8 mg/kg",0.0478 µM·h
same,"Peak concentration, Cmax, u","[3]; oral administration, 9.8 mg/kg, Cmax × PPB(Unbound %)",10.6 nM
same,half-life at 1 μM,[4],3.04 h
same,hepatocyte CLint at 1 μM,[4]; read-out: CLint(hep),7.6 µL/min/1e6 cells
same,CLint scaled at 1 μM,[4]; read-out: CLint(liver),52.3 mL/min/kg
same,half-life at 1 μM,[5],1.66 h
same,hepatocyte CLint at 1 μM,[5]; read-out: CLint(hep),13.9 µL/min/1e6 cells
same,CLint scaled at 1 μM,[5]; read-out: CLint(liver),38.7 mL/min/kg

# From patent US20250129102A1, “CRYSTAL FORM OF PYRIMIDINE HETEROCYCLIC COMPOUND AND PREPARATION METHOD THEREFOR” (D3 Bio (Wuxi) Co., Ltd., priority 2021, published 2025)
